What was measured:
JH2 domain of human Tyk2 = JH2 domain of human Tyk2 (Homo sapiens (Human), UniProt P29597); assay: JH2 Biochemical Assay (TR-FRET probe displacement); type: binding; conditions: JH2 domain of human Tyk2, TR-FRET probe displacement
Tyk2 = Tyk2 (Homo sapiens (Human), UniProt P29597); assay: pSTAT4 Cell Assay (MSD, NK92 cells); type: cell-based; conditions: MSD
Sequence of Tyk2 (P29597 whole entry): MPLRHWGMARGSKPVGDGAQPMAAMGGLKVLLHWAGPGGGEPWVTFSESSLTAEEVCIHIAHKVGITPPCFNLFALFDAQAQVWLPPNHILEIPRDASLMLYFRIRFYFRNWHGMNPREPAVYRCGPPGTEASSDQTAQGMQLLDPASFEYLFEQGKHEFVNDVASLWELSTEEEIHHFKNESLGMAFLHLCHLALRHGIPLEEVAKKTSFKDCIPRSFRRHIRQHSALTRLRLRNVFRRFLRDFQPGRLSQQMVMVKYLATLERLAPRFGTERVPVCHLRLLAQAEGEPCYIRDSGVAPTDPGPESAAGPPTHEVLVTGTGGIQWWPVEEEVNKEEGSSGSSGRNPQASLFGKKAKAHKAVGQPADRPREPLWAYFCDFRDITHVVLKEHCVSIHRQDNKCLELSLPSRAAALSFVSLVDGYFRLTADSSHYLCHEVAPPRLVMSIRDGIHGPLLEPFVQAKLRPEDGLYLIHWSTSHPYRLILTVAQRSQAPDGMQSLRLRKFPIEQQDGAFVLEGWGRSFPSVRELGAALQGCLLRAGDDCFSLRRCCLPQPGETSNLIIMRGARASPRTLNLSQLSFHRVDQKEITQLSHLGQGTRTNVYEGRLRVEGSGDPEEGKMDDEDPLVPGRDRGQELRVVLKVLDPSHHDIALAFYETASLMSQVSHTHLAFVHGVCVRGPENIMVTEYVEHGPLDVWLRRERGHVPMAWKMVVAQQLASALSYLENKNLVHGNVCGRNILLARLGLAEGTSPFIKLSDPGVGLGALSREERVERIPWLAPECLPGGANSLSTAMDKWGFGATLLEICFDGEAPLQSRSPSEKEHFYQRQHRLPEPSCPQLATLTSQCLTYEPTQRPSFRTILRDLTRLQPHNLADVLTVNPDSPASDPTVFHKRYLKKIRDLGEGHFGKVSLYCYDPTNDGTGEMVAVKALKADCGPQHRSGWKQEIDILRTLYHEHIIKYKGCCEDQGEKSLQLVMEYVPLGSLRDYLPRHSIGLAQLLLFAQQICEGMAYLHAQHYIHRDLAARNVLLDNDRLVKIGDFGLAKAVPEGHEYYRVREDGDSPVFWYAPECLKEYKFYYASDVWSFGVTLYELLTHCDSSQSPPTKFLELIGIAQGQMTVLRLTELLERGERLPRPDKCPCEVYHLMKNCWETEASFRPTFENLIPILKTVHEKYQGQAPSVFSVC

Sequence of JH2 domain of human Tyk2 (P29597 575-876): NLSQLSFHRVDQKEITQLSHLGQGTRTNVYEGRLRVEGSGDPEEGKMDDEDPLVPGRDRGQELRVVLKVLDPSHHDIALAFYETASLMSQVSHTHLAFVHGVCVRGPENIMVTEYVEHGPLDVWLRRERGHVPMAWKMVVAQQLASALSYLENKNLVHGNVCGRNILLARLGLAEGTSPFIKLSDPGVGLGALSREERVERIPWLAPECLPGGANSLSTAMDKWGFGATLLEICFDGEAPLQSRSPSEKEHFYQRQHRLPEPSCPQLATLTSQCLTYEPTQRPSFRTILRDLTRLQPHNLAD

Row | SMILES | IC50 (JH2 domain of human Tyk2) [nM] | IC50 (Tyk2) [nM]
1 | CC(=O)Nc1cc(Nc2cc(C)nc(C(C)(F)F)n2)c(-c2nccc(C3CC3)n2)cn1 [Example 666, N-(5-(4-cyclopropylpyrimidin-2-yl)-4-((2-(1,1-difluoroethyl)-6-methylpyrimidin-4-yl)amino)pyridin-2-yl)acetamide] | ≤ 10 | 100 to 1000
2 | CC(=O)Nc1cc(Nc2cc(C)nc(C(C)(F)F)n2)c(-c2cncc(C3CC3)n2)cn1 [Example 667, N-(5-(6-cyclopropylpyrazin-2-yl)-4-((2-(1,1-difluoroethyl)-6-methylpyrimidin-4-yl)amino)pyridin-2-yl)acetamide] | ≤ 10 | 10 to 100
3 | CC(=O)Nc1cc(Nc2cc(C)nc(C(C)(F)F)n2)c(-c2ncc(Cl)cn2)cn1 [Example 669, N-(5-(5-chloropyrimidin-2-yl)-4-((2-(1,1-difluoroethyl)-6-methylpyrimidin-4-yl)amino)pyridin-2-yl)acetamide] | ≤ 10 | 10 to 100
4 | CC(=O)Nc1cc(Nc2cc(C)nc(C(C)(F)F)n2)c(-c2ncc(C(F)F)cn2)cn1 [Example 670, N-(4-((2-(1,1-difluoroethyl)-6-methylpyrimidin-4-yl)amino)-5-(5-(difluoromethyl)pyrimidin-2-yl)pyridin-2-yl)acetamide] | ≤ 10 | 10 to 100
5 | CC(=O)Nc1cc(Nc2cc(C)nc(C(C)(F)F)n2)c(-c2nccc(C)n2)cn1 [Example 671, N-(4-((2-(1,1-difluoroethyl)-6-methylpyrimidin-4-yl)amino)-5-(4-methylpyrimidin-2-yl)pyridin-2-yl)acetamide] | ≤ 10 | 10 to 100
6 | COCc1cnc(-c2cnc(NC(C)=O)cc2Nc2cc(C)nc(C(C)(F)F)n2)nc1 [Example 672, N-(4-((2-(1,1-difluoroethyl)-6-methylpyrimidin-4-yl)amino)-5-(5-(methoxymethyl)pyrimidin-2-yl)pyridin-2-yl)acetamide] | ≤ 10 | ≤ 10
7 | CC(=O)Nc1cc(Nc2cc(C)nc(C(C)(F)F)n2)c(-c2ncc(F)c(C)n2)cn1 [Example 673, N-(4-((2-(1,1-difluoroethyl)-6-methylpyrimidin-4-yl)amino)-5-(5-fluorO4-methylpyrimidin-2-yl)pyridin-2-yl)acetamide] | 10 to 100 | 10 to 100
8 | CC(=O)Nc1cc(Nc2cc(C)nc(C(C)(F)F)n2)c(-c2cncc(CN(C)C)n2)cn1 [Example 675, N-(4-((2-(1,1-difluoroethyl)-6-methylpyrimidin-4-yl)amino)-5-(6-((dimethylamino)methyl)pyrazin-2-yl)pyridin-2-yl)acetamide] | ≤ 10 | 100 to 1000
9 | CC(=O)Nc1cc(Nc2cc(C)nc(C(C)(F)F)n2)c(-c2ccc3c(n2)CCC3=O)cn1 [Example 677, N-(4-((2-(1,1-difluoroethyl)-6-methylpyrimidin-4-yl)amino)-5-(5-oxO6,7-dihydrO5H-cyclopenta[b]pyridin-2-yl)pyridin-2-yl)acetamide] | ≤ 10 | ≤ 10
10 | CC(=O)Nc1cc(Nc2cc(C)nc(C(C)(F)F)n2)c(-c2ccc3nccn3n2)cn1 [Example 680, N-(4-((2-(1,1-difluoroethyl)-6-methylpyrimidin-4-yl)amino)-5-(imidazo[1,2-b]pyridazin-6-yl)pyridin-2-yl)acetamide] | ≤ 10 | 10 to 100
11 | CC(=O)Nc1cc(Nc2ccnc(C(C)(F)F)n2)c(-c2ncccn2)cn1 [Example 685, N-(4-((2-(1,1-difluoroethyl)pyrimidin-4-yl)amino)-5-(pyrimidin-2-yl)pyridin-2-yl)acetamide] | ≤ 10 | 10 to 100
12 | COc1ncc(-c2cnc(NC(C)=O)cc2Nc2ccnc(C(C)(F)F)n2)nc1OC [Example 686, N-(4-((2-(1,1-difluoroethyl)pyrimidin-4-yl)amino)-5-(5,6-dimethoxypyrazin-2-yl)pyridin-2-yl)acetamide] | 10 to 100 | ≥ 1000
13 | COc1cc(-c2cnc(NC(C)=O)cc2Nc2ccnc(C(C)(F)F)n2)nc(OC)n1 [Example 687, N-(4-((2-(1,1-difluoroethyl)pyrimidin-4-yl)amino)-5-(2,6-dimethoxypyrimidin-4-yl)pyridin-2-yl)acetamide] | ≤ 10 | 10 to 100
14 | CC(=O)Nc1cc(Nc2ccnc(C(C)(F)F)n2)c(-c2cncc(CC#N)n2)cn1 [Example 688, N-(5-(6-(cyanomethyl)pyrazin-2-yl)-4-((2-(1,1-difluoroethyl)pyrimidin-4-yl)amino)pyridin-2-yl)acetamide] | ≤ 10 | 100 to 1000
15 | CC(=O)Nc1cc(Nc2ccnc(C(C)(F)F)n2)c(-c2cncc(OC(F)F)n2)cn1 [Example 689, N-(4-((2-(1,1-difluoroethyl)pyrimidin-4-yl)amino)-5-(6-(difluoromethoxy)pyrazin-2-yl)pyridin-2-yl)acetamide] | 10 to 100 | ≥ 1000
16 | CC(=O)Nc1cc(Nc2ccnc(C(C)(F)F)n2)c(-c2cncc(OC3COC3)n2)cn1 [Example 690, N-(4-((2-(1,1-difluoroethyl)pyrimidin-4-yl)amino)-5-(6-(oxetan-3-yloxy)pyrazin-2-yl)pyridin-2-yl)acetamide] | 10 to 100 | 10 to 100

Row | SMILES | IC50 (JH2 domain of human Tyk2) [nM] | IC50 (Tyk2) [nM]
17 | COCCOc1cncc(-c2cnc(NC(C)=O)cc2Nc2ccnc(C(C)(F)F)n2)n1 [Example 691, N-(4-((2-(1,1-difluoroethyl)pyrimidin-4-yl)amino)-5-(6-(2-methoxyethoxy)pyrazin-2-yl)pyridin-2-yl)acetamide] | 10 to 100 | 100 to 1000
18 | CC(=O)Nc1cc(Nc2ccnc(C(C)(F)F)n2)c(-c2cnc(COC(F)F)cn2)cn1 [Example 692, N-(4-((2-(1,1-difluoroethyl)pyrimidin-4-yl)amino)-5-(5-((difluoromethoxy)methyl)pyrazin-2-yl)pyridin-2-yl)acetamide] | ≤ 10 | 100 to 1000
19 | CC(=O)Nc1cc(Nc2ccnc(C(C)(F)F)n2)c(-c2cnc(C3CC3)cn2)cn1 [Example 694, N-(5-(5-cyclopropylpyrazin-2-yl)-4-((2-(1,1-difluoroethyl)pyrimidin-4-yl)amino)pyridin-2-yl)acetamide] | ≤ 10 | 10 to 100
20 | CC(=O)Nc1cc(Nc2ccnc(C(C)(F)F)n2)c(-c2cnc(C(C)(F)F)cn2)cn1 [Example 695, N-(5-(5-(1,1-difluoroethyl)pyrazin-2-yl)-4-((2-(1,1-difluoroethyl)pyrimidin-4-yl)amino)pyridin-2-yl)acetamide] | ≤ 10 | 100 to 1000
21 | COCc1nccc(-c2cnc(NC(C)=O)cc2Nc2ccnc(C(C)(F)F)n2)n1 [Example 696, N-(4-((2-(1,1-difluoroethyl)pyrimidin-4-yl)amino)-5-(2-(methoxymethyl)pyrimidin-4-yl)pyridin-2-yl)acetamide] | ≤ 10 | ≤ 10
22 | CC(=O)Nc1cc(Nc2ccnc(C(C)(F)F)n2)c(-c2ncc(Cl)cn2)cn1 [Example 697, N-(5-(5-chloropyrimidin-2-yl)-4-((2-(1,1-difluoroethyl)pyrimidin-4-yl)amino)pyridin-2-yl)acetamide] | ≤ 10 | 10 to 100
23 | CC(=O)Nc1cc(Nc2ccnc(C(C)(F)F)n2)c(-c2ncccc2F)cn1 [Example 698, N-(4′-((2-(1,1-difluoroethyl)pyrimidin-4-yl)amino)-3-fluorO[2,3′-bipyridin]-6′-yl)acetamide] | 10 to 100 | 100 to 1000
24 | COc1cc(-c2cnc(NC(C)=O)cc2Nc2ccnc(C(C)(F)F)n2)ncc1F [Example 699, N-(4′-((2-(1,1-difluoroethyl)pyrimidin-4-yl)amino)-5-fluorO4-methoxy-[2,3′-bipyridin]-6′-yl)acetamide] | 10 to 100 | ≥ 1000
25 | CC(=O)Nc1cc(Nc2ccnc(C(C)(F)F)n2)c(-c2cc(C)ccn2)cn1 [Example 700, N-(4′-((2-(1,1-difluoroethyl)pyrimidin-4-yl)amino)-4-methyl-[2,3′-bipyridin]-6′-yl)acetamide] | ≤ 10 | 10 to 100
26 | CC(=O)Nc1cc(Nc2ccnc(C(C)(F)F)n2)c(-c2cc(C)c(C#N)cn2)cn1 [Example 701, N-(5-cyanO4′-((2-(1,1-difluoroethyl)pyrimidin-4-yl)amino)-4-methyl-[2,3′-bipyridin]-6′-yl)acetamide] | ≤ 10 | ≤ 10
27 | CC(=O)Nc1cc(Nc2ccnc(C(C)(F)F)n2)c(-c2ccc(CN3C[C@H]4C[C@@H](C3)O4)cn2)cn1 [Example 702, N-(5-(((1R,5S)-6-oxa-3-azabicyclo[3.1.1]heptan-3-yl)methyl)-4′-((2-(1,1-difluoroethyl)pyrimidin-4-yl)amino)-[2,3′-bipyridin]-6′-yl)acetamide] | ≤ 10 | ≤ 10
28 | CC(=O)Nc1cc(Nc2ccnc(C(C)(F)F)n2)c(-c2ccc(CN3CCC4(COC4)C3)cn2)cn1 [Example 703, N-(5-((2-oxa-6-azaspiro[3.4]octan-6-yl)methyl)-4′-((2-(1,1-difluoroethyl)pyrimidin-4-yl)amino)-[2,3′-bipyridin]-6′-yl)acetamide] | ≤ 10 | ≤ 10
29 | CC(=O)Nc1cc(Nc2ccnc(C(C)(F)F)n2)c(-c2ccn(CC3CC3)n2)cn1 [Example 704, N-(5-(1-(cyclopropylmethyl)-1H-pyrazol-3-yl)-4-((2-(1,1-difluoroethyl)pyrimidin-4-yl)amino)pyridin-2-yl)acetamide] | ≤ 10 | ≤ 10
30 | CCCn1ccc(-c2cnc(NC(C)=O)cc2Nc2ccnc(C(C)(F)F)n2)n1 [Example 705, N-(4-((2-(1,1-difluoroethyl)pyrimidin-4-yl)amino)-5-(1-propyl-1H-pyrazol-3-yl)pyridin-2-yl)acetamide] | ≤ 10 | ≤ 10
31 | CCn1ccc(-c2cnc(NC(C)=O)cc2Nc2ccnc(C(C)(F)F)n2)n1 [Example 706, N-(4-((2-(1,1-difluoroethyl)pyrimidin-4-yl)amino)-5-(1-ethyl-1H-pyrazol-3-yl)pyridin-2-yl)acetamide] | ≤ 10 | ≤ 10
